What was measured:
[1] = target: Leucine-rich repeat serine/threonine-protein kinase 2 (Homo sapiens, UniProt Q5S007, G2019S); assay: Inhibition of GST-tagged LRRK2 G2019S mutant (1326 to 2527 residues) (unknown origin) using peptide as substrate incubated for 15 mins in presence of ATP by immunoblotting analysis
[2] = target: Rho-associated protein kinase 2 (Homo sapiens, UniProt O75116); assay: Inhibition of His6-tagged ROCK2 (2 to 543 residues) (unknown origin) using peptide as substrate incubated for 15 mins in presence of ATP by immunoblotting analysis
Chain of Rho-associated protein kinase 2 (O75116 whole entry, the tested form may be a part): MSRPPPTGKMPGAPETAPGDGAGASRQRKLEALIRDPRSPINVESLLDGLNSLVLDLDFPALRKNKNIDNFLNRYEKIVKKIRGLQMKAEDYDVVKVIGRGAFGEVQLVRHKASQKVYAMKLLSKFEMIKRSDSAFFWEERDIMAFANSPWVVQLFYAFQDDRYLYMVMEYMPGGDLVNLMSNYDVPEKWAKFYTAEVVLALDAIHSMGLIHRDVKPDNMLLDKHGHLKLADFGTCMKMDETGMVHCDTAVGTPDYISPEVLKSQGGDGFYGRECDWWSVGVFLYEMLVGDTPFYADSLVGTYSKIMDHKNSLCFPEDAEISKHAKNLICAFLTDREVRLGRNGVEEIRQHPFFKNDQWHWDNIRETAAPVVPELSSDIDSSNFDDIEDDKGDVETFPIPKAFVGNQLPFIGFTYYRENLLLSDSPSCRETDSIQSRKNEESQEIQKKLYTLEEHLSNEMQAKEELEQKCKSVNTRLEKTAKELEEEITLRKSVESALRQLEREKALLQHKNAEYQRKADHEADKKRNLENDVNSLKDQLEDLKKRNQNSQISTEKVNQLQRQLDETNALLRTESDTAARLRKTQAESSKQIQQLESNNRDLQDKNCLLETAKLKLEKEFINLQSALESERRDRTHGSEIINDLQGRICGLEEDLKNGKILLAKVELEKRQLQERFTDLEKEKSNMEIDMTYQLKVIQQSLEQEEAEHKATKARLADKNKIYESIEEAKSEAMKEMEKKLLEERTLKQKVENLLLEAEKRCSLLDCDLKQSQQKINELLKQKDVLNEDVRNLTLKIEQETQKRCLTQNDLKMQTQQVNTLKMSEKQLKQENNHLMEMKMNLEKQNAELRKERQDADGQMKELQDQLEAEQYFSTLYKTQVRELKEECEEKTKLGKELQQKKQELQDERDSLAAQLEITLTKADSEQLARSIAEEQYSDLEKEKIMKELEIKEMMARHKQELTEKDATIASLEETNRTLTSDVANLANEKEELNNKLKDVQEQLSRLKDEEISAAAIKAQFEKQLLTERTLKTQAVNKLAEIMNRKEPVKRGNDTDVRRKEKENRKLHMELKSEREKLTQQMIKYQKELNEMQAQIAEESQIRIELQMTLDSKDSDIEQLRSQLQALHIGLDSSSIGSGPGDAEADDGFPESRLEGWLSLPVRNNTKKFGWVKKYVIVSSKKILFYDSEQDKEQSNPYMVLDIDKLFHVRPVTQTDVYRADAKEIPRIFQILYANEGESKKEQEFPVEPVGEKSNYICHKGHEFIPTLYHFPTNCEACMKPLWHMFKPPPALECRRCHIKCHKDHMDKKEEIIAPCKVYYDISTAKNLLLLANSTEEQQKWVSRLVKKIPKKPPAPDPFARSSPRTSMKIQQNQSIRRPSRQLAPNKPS

[3] = target: Leucine-rich repeat serine/threonine-protein kinase 2 (Homo sapiens, UniProt Q5S007); assay: Inhibition of GST-tagged LRRK2 (1326 to 2527 residues) (unknown origin) using peptide as substrate incubated for 15 mins in presence of ATP by immunoblotting analysis
Chain of Leucine-rich repeat serine/threonine-protein kinase 2 (Homo sapiens, UniProt Q5S007) (Q5S007 whole entry, the tested form may be a part): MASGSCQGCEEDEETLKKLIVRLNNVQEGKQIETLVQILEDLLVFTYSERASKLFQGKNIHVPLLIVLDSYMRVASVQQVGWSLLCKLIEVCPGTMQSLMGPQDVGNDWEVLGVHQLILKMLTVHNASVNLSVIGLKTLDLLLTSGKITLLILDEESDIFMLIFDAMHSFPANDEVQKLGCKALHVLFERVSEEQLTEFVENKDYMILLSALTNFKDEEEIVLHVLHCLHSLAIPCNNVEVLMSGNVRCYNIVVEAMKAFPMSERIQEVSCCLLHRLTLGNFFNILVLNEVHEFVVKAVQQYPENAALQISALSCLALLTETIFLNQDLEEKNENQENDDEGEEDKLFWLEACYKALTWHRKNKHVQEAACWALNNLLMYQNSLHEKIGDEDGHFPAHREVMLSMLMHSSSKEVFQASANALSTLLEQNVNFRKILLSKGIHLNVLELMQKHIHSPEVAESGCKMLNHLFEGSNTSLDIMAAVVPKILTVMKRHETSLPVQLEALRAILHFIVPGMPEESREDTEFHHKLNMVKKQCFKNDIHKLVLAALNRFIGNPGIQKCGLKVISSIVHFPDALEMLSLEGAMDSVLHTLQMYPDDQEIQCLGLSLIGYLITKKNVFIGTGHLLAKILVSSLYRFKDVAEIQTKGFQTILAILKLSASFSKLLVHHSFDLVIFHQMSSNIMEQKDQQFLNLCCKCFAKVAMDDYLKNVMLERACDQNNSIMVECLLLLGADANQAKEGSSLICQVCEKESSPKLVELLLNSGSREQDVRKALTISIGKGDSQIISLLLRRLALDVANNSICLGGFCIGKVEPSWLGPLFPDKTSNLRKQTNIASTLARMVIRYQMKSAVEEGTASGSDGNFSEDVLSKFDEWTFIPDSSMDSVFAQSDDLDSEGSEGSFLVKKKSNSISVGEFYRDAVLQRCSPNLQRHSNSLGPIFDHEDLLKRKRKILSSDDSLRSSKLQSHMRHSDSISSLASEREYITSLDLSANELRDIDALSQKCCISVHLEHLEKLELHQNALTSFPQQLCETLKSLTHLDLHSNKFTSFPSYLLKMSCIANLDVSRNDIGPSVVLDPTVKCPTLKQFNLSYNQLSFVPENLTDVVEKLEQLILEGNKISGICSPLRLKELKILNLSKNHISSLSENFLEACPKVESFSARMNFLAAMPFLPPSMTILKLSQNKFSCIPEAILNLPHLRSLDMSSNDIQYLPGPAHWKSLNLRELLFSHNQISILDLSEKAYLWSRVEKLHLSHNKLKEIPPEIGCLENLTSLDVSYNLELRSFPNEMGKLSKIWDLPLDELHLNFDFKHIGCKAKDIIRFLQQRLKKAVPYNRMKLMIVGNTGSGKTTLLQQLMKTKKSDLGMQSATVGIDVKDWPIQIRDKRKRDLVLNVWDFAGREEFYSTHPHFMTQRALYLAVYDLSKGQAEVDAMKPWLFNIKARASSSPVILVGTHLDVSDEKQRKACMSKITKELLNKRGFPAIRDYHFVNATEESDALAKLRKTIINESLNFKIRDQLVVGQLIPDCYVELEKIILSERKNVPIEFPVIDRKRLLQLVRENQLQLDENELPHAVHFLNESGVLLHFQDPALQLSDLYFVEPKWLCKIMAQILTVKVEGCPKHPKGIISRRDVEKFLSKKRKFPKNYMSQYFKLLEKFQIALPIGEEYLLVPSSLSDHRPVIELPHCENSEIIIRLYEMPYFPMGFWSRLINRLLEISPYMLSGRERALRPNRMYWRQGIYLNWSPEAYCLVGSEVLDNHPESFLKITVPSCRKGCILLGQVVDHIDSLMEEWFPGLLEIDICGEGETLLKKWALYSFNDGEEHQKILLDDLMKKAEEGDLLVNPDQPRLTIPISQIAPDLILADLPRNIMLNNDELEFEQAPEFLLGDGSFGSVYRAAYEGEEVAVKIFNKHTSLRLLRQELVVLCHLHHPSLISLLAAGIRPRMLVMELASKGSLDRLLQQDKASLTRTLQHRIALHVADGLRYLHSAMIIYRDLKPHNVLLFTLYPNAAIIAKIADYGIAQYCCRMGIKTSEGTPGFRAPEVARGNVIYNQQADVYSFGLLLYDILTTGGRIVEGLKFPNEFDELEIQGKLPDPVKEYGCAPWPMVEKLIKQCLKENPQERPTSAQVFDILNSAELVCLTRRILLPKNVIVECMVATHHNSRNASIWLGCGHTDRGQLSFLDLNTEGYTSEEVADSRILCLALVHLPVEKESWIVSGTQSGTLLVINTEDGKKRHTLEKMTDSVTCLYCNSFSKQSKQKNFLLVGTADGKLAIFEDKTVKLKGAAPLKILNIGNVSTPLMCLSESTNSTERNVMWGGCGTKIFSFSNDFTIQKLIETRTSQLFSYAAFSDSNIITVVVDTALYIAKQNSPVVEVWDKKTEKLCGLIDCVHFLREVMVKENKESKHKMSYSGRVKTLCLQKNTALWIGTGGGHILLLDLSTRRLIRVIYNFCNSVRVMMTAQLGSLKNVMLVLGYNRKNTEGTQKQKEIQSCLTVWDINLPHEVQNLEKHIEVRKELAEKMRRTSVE

Chain of Leucine-rich repeat serine/threonine-protein kinase 2 (Homo sapiens, UniProt Q5S007, G2019S) (Q5S007 whole entry G2019S, the tested form may be a part): as the sequence (Q5S007 whole entry, the tested form may be a part) above, with G2019S counted along it

With `O=S(=O)(NCCNC/C=C/c1ccc(Br)cc1)Nc1cccc2cnccc12` the IC50 [1] was over 10 µM, the IC50 [2] was 0.29 µM and the IC50 [3] was over 10 µM.
